From patent US9297017B2, “Methods and compositions for targeted protein degradation” (University of Washington, priority 2010, dated 2016)
Entries after “also recorded” stand apart in the source; their conditions may differ.

How the values were obtained:
[1] = molecular target: T1, COI1/JAZ1 co-receptor (Arabidopsis thaliana, UniProt O04197+Q9LMA8); experiment: Ligand-binding based reconstitution assay (inositol phosphate rescue) with dialyzed COI1/ASK1 and JAZ1; conditions: for Effect of inositol phosphate on activity of the COI1/JAZ1 co-receptor (coronatine binding): dialyzed COI1, JAZ1, 1 μM inositol phosphate
T1 construct: Full-length Arabidopsis thaliana COI1 and ASK1 were co-expressed; Full-length JAZ substrate proteins were expressed as 6×His-fusion proteins in Escherichia coli; GST (cleaved yes); 6xHis; made in house; host or cells: Hi5 insect cells (COI1/ASK1); Escherichia coli (JAZ1)
T1 sequence (O04197 1-592): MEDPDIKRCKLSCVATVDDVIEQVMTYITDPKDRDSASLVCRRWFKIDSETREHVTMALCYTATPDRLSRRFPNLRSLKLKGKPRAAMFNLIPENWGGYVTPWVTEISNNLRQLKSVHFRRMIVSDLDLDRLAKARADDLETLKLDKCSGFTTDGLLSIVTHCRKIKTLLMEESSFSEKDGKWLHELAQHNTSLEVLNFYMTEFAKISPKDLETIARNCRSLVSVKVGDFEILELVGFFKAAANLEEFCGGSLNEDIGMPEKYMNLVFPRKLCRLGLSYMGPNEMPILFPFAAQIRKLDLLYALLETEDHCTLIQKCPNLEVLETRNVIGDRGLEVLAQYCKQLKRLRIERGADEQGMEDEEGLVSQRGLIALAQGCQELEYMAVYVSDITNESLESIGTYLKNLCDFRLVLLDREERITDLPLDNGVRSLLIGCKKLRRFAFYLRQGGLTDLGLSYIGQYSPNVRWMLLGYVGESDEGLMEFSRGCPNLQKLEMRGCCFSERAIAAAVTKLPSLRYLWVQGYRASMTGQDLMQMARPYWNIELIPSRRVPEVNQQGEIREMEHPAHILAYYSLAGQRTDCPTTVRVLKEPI
T1 sequence (Q39255 1-160 partner): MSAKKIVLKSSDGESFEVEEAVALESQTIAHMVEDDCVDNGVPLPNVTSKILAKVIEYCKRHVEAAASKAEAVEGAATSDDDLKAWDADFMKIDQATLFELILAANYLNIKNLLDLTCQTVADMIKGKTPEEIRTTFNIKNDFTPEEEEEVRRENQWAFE
T1 sequence (Q9LMA8 1-253): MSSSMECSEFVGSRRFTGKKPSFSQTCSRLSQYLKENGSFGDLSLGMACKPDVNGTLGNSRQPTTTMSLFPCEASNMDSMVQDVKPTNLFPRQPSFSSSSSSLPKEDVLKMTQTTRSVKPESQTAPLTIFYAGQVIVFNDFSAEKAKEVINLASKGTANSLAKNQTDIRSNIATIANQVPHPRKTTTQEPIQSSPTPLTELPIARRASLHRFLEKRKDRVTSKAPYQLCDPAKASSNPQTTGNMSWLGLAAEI
Protocol: (§1) Radioligand binding was assayed on purified proteins, with 2 mg COI1/ASK1 complex and JAZ proteins at a 1:3 molar ratio. Reactions were prepared in […] final volume and in a binding buffer containing 20 mM Tris-HCl 200 mM NaCl, and 10% glycerol. Saturation binding experiments were conducted with serial dilutions of 3H-coronatine in binding buffer. Nonspecific binding was determined in the presence of […] coronatine. Competition binding experiments were conducted with serial dilutions of JA-Ile in the presence of 100 nM ^3H coronatine with nonspecific binding determined in the presence of […] coronatine. Total binding was determined in the presence of vehicle only. Two-point binding experiments were performed in the presence of 100 nM or 300 nM ^3H-coronatine with nonspecific binding determined in the presence of […] coronatine. Following incubation with mixing at 4° C., all samples were collected with a cell harvester (Brandel, Gaithersburg, Md.) on polyethyleneimine (Sigma)-treated filters. Samples were incubated in liquid scintillation fluid for >1 hour before counting with a Packard Tri-Carb 2200 CA liquid scintillation analyzer (Packard Instrument Co.). Saturation binding experiments were analyzed by nonlinear regression, competition binding experiments by nonlinear regression with Ki calculation as described previously (Cheng 1973), and concentration-response data by sigmoidal dose-response curve fitting, all using GraphPad Prism version 4.00 for MacOSX.
To assess the functional role of Ins(1,2,4,5,6)P5 in the COI1/JAZ1 co-receptor, a protocol was developed for stripping the co-purified InsP5 from COI1 without denaturing the protein. Briefly, proteins were mixed with 10% glycerol and incubated in 2 M ammonium phosphate, 100 mM Bis-Tris propane, pH 7.0, 200 mM NaCl, and 10% glycerol at 4° C. for >24 hours with a minimum of 3× buffer changes at 100× sample volume. Samples were then transferred to 20 mM Tris-HCl, pH 8.0, 200 mM NaCl, and 10% glycerol at 4° C. for >24 hours with a minimum of three buffer changes at 100× sample volume. Inositol phosphate rescue experiments were conducted according to the radioligand binding assays described above in the presence of 300 nM ^3H-coronatine with nonspecific binding determined in the presence of 300 μM coronatine.
The resulting COI1/ASK1 complex was tested in a ligand-binding based reconstitution assay. […] From this reconstitution result, it was concluded that Ins(1,2,4,5,6)P5 binding is crucial for the jasmonate coreceptor to perceive the hormone with high sensitivity.

[2] = molecular target: T2, COI1-JAZ6 complex (Arabidopsis thaliana, UniProt O04197+Q9C9E3); experiment: Competition binding with 100 nM 3H-coronatine; conditions: 100 nM 3H-COR, COI1-JAZ6 complex; read-out: Inhibition constant (Ki), competition with 3H-coronatine
T2 construct: Full-length Arabidopsis thaliana COI1 and ASK1 were co-expressed; Full-length JAZ substrate proteins were expressed as 6×His-fusion proteins in Escherichia coli; GST (cleaved yes); 6xHis; made in house; host or cells: Hi5 insect cells (COI1/ASK1); Escherichia coli (JAZ6)
T2 sequence (O04197 1-592): T1 sequence (O04197 1-592)
T2 sequence (Q39255 1-160 partner): T1 sequence (Q39255 1-160 partner)
T2 sequence (Q9C9E3 1-269): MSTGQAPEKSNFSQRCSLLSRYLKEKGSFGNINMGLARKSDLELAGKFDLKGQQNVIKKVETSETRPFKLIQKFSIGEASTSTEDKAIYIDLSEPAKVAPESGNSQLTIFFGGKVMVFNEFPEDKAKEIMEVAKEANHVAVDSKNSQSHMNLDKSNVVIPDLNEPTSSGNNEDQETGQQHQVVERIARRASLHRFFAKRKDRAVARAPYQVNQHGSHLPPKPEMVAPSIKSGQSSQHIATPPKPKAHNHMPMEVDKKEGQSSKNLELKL
Excerpt: (^3H)-labeled coronatine was synthesized by Amersham. Full-length Arabidopsis thaliana COI1 and ASK1 were co-expressed as a glutathione S-transferase (GST) fusion protein and an untagged protein, respectively, in Hi5 suspension insect cells. The COI1/ASK1 complex was isolated from the soluble cell lysate by glutathione affinity chromatography. After on-column tag cleavage by tobacco etch virus protease, the complex was further purified by anion exchange and gel filtration chromatography and concentrated by ultrafiltration to 12-18 mg ml^−1. Full-length JAZ substrate proteins were expressed as 6×His-fusion proteins in Escherichia coli and purified on Ni-NTA resin with subsequent dialysis into 20 mM Tris-HCl, pH 8.0, 200 mM NaCl, and 10% glycerol.
as §1, with “Samples were incubated in liquid scintillation fluid for >1 hour before counting with a Packard Tri-Carb 2200 CA liquid scintillation analyzer (Packard Instrument Co.).” left out

[3] = molecular target: T3, COI1 (Arabidopsis thaliana, UniProt O04197); experiment: Ligand binding assay with synthetic JAZ peptides replacing recombinant JAZ1 (coronatine binding to COI1/ASK1); conditions: 300 nM coronatine
T3 construct: Full-length Arabidopsis thaliana COI1 and ASK1 were co-expressed; GST (cleaved yes); made in house; host or cells: Hi5 insect cells (COI1/ASK1); JAZ peptides synthetic
T3 sequence (O04197 1-592): T1 sequence (O04197 1-592)
T3 sequence (Q39255 1-160 partner): T1 sequence (Q39255 1-160 partner)
Protocol: as §1
Previous studies have shown that the highly conserved PY sequence at the C-terminal end of the Jas motif plays a role in JAZ localization and stability in vivo, but that the sequence was not necessary for ligand-dependent COI1-JAZ interaction. This was confirmed by an experiment showing that truncation of the PY motif in JAZ1 had little effect on in vitro ligand binding activity (FIG. 3). […]
Various derivatives of the JAZ1 degron sequence, as well as derivatives of the JAZ6 and JAZ7 degron sequences, were analyzed for their ability to bind COI1 with high affinity in the presence of coronatine.

[4] = molecular target: T1, COI1/JAZ1 co-receptor; experiment: Ligand-binding based reconstitution assay (inositol phosphate rescue) with dialyzed COI1/ASK1 and JAZ1; conditions: 100 nM 3H-coronatine, read-out: EC50, rescue of 3H-coronatine binding to dialyzed COI1/ASK1 in the presence of JAZ1

Molecule	Binding of peptide to COI1 in the presence of coronatine [3]	Effect of inositol phosphate on activity of the COI1/JAZ1 co-receptor (coronatine binding) [1]	also measured
O=P(O)(O)OC1C(OP(=O)(O)O)C(OP(=O)(O)O)C(OP(=O)(O)O)C(OP(=O)(O)O)C1OP(=O)(O)O (stereo not drawn) [InsP6, inositol hexakisphosphate]	–	not favorable for activity; also recorded: significantly less efficacious	–
CCC=CC[C@H]1C(=O)CC[C@@H]1CC(=O)N[C@H](C(=O)O)[C@@H](C)CC [(3R,7R)-JA-Ile]	–	–	Ki [2]: 18 ± 19 µM
CC/C=C\C[C@@H]1C(=O)CC[C@@H]1CC(=O)N[C@H](C(=O)O)[C@@H](C)CC [(3R,7S)-JA-Ile, (3R,7S)-jasmonyl-L-isoleucine]	–	–	Ki [2]: 1.8 ± 0.6 µM
JAZ1 +4 extension: LPIARRASLHRFLEKRKDRV (listed as Arabidopsis thaliana)	much higher affinity	–	–
O=P(O)(O)OC1C(O)C(OP(=O)(O)O)C(OP(=O)(O)O)C(OP(=O)(O)O)C1OP(=O)(O)O (stereo not drawn) [Ins(1,2,4,5,6)P5, inositol-1,2,4,5,6-pentakisphosphate]	–	rescued the interaction in a dose-dependent manner	Effect of inositol phosphate on activity of the COI1/JAZ1 co-receptor (coronatine binding) ([1]; listed as InsP5): rescues binding; Effect of exogenous inositol phosphate on untreated COI1/JAZ1 co-receptor activity ([1]; untreated (not dialyzed) COI1, JAZ1, 1 μM): did not significantly change its activity; EC50 [4]: 0.027 µM
O=P(O)(O)O[C@H]1[C@H](OP(=O)(O)O)[C@@H](OP(=O)(O)O)[C@@H](O)[C@@H](O)[C@@H]1OP(=O)(O)O [inositol-1,4,5,6-tetrakisphosphate]	–	supports the activity	–
O=P(O)(O)O[C@@H]1[C@H](O)[C@H](O)[C@@H](OP(=O)(O)O)[C@H](OP(=O)(O)O)[C@H]1O [inositol-1,4,5-trisphosphate]	–	does not	–

Now from value to molecule, other results behind:

Binding of peptide to COI1 in the presence of coronatine [3]	Molecule	Effect of inositol phosphate on activity of the COI1/JAZ1 co-receptor (coronatine binding) [1]	also measured
significant binding	JAZ1-extension +5+PY: ELPIARRASLHRFLEKRKDRVTSKAPY (listed as Arabidopsis thaliana)	–	–
did not bind to COI1 with high affinity	JAZ1 degron: RRASLHRFLEKRKDRVTSKAPY (R205-Y226 of JAZ1) (listed as Arabidopsis thaliana)	–	–
